Source: patent publication EP0998480B1, “NUCLEOTIDE ANALOG COMPOSITION AND SYNTHESIS METHOD” (GILEAD SCIENCES, INC., priority 1997, dated 1999)

Columns and labels:
[1] = hygroscopicity at 92% relative humidity; type: physicochemical; details: crystals kept at 92% relative humidity and room temperature for up to 37 days
[2] = solid state chemical stability on storage at elevated temperature and relative humidity; type: physicochemical; details: for BPPF% / mono(POC) PMPA fumarate%: 75% relative humidity, 0 days; for mono(POC) PMPA fumarate%: degradation product in stored BPPF
Excerpt: The solid state chemical stability of cBPPF and bis(POC)PMPA•citrate salt was compared by analyzing each compound after storage under different conditions.

[3] = human, in vivo

9-[2-(R)-[[Bis[[(isopropoxycarbonyl)oxy]methoxy]phosphinoyl]methoxy]propyl]adenine• fumaric acid [BPPF]
hygroscopicity [1]: not hygroscopic
BPPF% ([2]; 40°C): 99.0%
mono(POC) PMPA fumarate% ([2]; 40°C): 1.0%
BPPF% ([2]; 60°C): 99.0%
mono(POC) PMPA fumarate% ([2]; 60°C): 1.0%
solid state chemical stability compared with bis(POC)PMPA citrate salt ([2]; powder, storage at elevated temperature and relative humidity): more stable
oral bioavailability [3]: 30-40%
